In ChEMBL document CHEMBL1201862, “PubChem BioAssay data set” (2004):
The source made the active and inactive calls.

Tests used:
Leucine aminopeptidase = target: T1, Leucine aminopeptidase (Plasmodium falciparum 3D7, UniProt Q8IL11); assay: P. falciparum M17LAP inhibitors, primary screen, biochemical, fluorogenic H-Leu-NHMec substrate, 1536-well (AID 1619); format: functional
T1 sequence (Q8IL11 whole entry): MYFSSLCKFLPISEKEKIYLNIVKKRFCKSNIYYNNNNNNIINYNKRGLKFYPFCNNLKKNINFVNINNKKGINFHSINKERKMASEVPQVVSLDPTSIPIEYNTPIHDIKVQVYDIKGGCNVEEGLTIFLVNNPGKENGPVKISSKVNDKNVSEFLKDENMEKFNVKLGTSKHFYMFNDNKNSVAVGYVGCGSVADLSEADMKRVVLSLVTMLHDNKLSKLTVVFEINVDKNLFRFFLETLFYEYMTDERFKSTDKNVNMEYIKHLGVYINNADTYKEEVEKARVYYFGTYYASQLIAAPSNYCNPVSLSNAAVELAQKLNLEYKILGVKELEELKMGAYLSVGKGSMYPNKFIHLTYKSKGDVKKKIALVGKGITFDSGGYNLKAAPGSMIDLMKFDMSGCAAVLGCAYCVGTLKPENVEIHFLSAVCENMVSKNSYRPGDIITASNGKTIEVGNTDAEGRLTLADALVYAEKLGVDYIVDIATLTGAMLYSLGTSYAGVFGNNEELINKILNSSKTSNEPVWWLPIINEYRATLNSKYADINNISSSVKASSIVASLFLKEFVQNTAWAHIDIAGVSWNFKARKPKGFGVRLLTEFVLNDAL

[1] = target: T2, Polyadenylate-binding protein 1 (Homo sapiens, UniProt P11940); assay: PABP1 MLLE–PAM2 interaction inhibitors, dose response, miRNA deadenylation inhibitor project, biochemical, fluorescence polarization, Cy5-PAM2 peptide, secondary (AID 602260); format: functional; conditions: read-out: IC50_Mean
[2] = target: T2, Polyadenylate-binding protein 1; assay: PABP1 MLLE–PAM2 binding inhibitor potency, dose response, biochemical, fluorescence polarization, FITC-PAM2 peptide (AID 602259); format: functional; conditions: read-out: IC50_Mean
[3] = Luminescence Cell-Based Dose Response HTS to Identify Activators of Luciferase Translation or Activity in H4 […] Cells. [Related pubchem assays: 1829 (Project Summary), 1814 (Primary HTS)]; format: functional
H4 = assay: Luminescence Cell-Based Dose Response HTS to Identify Activators of 5'UTR Stem-Loop Driven Prion Protein mRNA Translation in H4 Neuroglioblastoma Cells. [Related pubchem assays: 1829 (Project Summary), 1814 (Primary HTS)]; format: functional; conditions: Homo sapiens
[4] = Luminescence Cell-Based Dose Confirmation HTS to Identify Activators of 5'UTR Stem-Loop Driven Alpha-Synuclein mRNA Translation in H4 Neuroglioblastoma Cells. [Related pubchem assays: 1829 (Project Summary), 1814 (Primary HTS)]; format: functional
[5] = inhibitors of intracellular T. cruzi replication, confirmation, NIH3T3 host cells, beta-gal luminescence (AID 2044); format: functional, cell-based;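 note: intracellular parasites grown in NIH/3T3 mouse fibroblasts as host cells; luminescent beta-galactosidase reporter signal from transgenic T. cruzi replicating inside host cells; inhibitors lower the luminescence signal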
Protein RecA = target: T3, Protein RecA (Mycobacterium tuberculosis, UniProt P9WHJ3); assay: Fluorescence Cell-Free Homogeneous Dose Retest to Identify Inhibitors of RecA-Intein Splicing Activity. [Related pubchem assays (depositor defined):AID2097, AID2223, AID489010, AID492950]; format: functional
T3 sequence (P9WHJ3 whole entry): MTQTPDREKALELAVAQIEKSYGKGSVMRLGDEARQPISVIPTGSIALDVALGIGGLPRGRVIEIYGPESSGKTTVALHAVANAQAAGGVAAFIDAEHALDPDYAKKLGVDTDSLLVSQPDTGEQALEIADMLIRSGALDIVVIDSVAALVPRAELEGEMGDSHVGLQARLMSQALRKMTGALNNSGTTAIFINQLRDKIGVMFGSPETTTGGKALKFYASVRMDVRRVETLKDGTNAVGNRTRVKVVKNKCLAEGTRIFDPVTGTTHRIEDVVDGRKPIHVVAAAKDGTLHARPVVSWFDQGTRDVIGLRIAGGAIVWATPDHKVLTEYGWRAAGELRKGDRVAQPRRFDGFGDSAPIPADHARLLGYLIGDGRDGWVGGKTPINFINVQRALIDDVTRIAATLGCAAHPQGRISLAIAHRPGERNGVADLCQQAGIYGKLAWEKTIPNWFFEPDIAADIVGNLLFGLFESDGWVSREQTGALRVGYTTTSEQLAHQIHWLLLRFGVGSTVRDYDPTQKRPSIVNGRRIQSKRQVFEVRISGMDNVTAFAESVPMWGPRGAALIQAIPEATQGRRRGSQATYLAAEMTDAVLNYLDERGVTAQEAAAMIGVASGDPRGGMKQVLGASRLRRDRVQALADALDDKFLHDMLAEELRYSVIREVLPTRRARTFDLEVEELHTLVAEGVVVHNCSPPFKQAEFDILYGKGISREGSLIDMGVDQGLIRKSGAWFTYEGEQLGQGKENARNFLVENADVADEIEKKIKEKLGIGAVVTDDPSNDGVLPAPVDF

Vero = assay: cells; format: functional; conditions: Chlorocebus sabaeus
[6] = target: T4, Replicative DNA helicase DnaB (Mycobacterium tuberculosis, UniProt P9WMR3); assay: DnaB intein splicing inhibitors, dose response, biochemical, cell-free fluorescence (AID 449749); format: functional
T4 sequence (P9WMR3 whole entry): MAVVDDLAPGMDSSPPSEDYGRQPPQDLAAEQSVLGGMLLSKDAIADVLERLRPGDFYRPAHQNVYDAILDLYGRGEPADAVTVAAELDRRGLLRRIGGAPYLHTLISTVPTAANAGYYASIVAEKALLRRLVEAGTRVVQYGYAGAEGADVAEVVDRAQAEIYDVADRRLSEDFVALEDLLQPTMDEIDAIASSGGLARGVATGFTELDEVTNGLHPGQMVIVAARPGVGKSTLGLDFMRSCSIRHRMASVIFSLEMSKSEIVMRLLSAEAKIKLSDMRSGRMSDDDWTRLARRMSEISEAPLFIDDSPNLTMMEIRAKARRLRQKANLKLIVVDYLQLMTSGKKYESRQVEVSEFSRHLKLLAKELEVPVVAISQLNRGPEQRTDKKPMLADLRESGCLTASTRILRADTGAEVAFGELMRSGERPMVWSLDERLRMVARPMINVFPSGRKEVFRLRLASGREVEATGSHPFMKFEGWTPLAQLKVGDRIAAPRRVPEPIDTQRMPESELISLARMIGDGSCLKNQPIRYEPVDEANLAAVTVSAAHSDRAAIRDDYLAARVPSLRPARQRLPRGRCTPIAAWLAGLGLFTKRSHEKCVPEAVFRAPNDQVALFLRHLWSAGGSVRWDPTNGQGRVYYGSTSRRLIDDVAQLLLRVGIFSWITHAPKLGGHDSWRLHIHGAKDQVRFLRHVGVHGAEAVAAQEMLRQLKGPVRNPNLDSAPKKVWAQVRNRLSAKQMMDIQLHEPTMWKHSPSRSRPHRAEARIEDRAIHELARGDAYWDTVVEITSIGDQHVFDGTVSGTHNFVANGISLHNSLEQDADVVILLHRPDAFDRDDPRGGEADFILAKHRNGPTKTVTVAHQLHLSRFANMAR

[7] = cytotoxicity toward NIH3T3 fibroblasts, dose response, counter-screen, cell-based, ATP luminescence, mouse fibroblasts (AID 2010); format: functional;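 note: cells exposed to compound for about 90 hours before reading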
[8] = target: T5, RNA-binding protein pos-1 (Caenorhabditis elegans, UniProt G5EF15); assay: inhibitors of POS-1/mex-3 RNA binding, dose response, biochemical, fluorescence polarization (AID 1964);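 note: purified POS-1 fused to maltose binding protein made in E. coli; potency of compounds blocking POS-1 binding to fluorescent RNA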
T5 sequence (G5EF15 whole entry): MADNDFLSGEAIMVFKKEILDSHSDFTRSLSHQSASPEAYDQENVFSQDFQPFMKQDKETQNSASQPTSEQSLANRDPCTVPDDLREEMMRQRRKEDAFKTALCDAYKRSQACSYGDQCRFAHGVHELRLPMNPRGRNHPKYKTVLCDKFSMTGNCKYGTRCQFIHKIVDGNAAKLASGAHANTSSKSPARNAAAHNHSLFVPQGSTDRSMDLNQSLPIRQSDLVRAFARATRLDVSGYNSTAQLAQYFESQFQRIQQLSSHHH

[9] = target: T6, Zinc finger protein mex-5 (Caenorhabditis elegans, UniProt Q9XUB2); assay: MEX-5/TCR-2 RNA interaction inhibitors, dose response, biochemical, C. elegans, fluorescence polarization (AID 1960)
T6 sequence (Q9XUB2 whole entry): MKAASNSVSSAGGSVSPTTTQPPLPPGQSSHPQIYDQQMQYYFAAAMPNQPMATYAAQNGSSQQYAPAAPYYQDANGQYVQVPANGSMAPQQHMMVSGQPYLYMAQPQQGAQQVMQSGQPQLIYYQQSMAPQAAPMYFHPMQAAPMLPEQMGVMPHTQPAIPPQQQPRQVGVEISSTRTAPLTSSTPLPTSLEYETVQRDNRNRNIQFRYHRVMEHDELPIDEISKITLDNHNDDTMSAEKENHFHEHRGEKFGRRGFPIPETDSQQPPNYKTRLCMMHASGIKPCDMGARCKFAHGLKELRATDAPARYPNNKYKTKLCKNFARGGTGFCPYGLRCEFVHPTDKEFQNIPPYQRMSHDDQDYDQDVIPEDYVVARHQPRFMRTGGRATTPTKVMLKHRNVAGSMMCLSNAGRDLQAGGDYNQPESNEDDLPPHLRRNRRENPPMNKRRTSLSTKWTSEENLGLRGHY

Cytochrome P450 2C19 = Cytochrome P450 2C19 (Homo sapiens, UniProt P33261); assay: Cytochrome panel assay with activity outcomes. Panel member name: p450-cyp2c19 Compounds with AC50 equal or less than 10 uM are considered active; format: functional; conditions: read-out: AC50
[10] = growth suppression of PTEN-null colon cells, dose response, cell-based, HCT116 PTEN knockout (AID 1047); format: functional;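 note: HCT116 colon tumor cells with PTEN knocked out; cells exposed to compound for 60 hours before readout; potency for loss of cell viability measured by luminescence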
Streptococcus = assay: Group A Streptococcus viability loss, dose response, counter-screen for streptokinase expression inhibitor project, luminescence, BacTiterGlo (AID 1915); format: functional, organism-based;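 note: potency for reduction of bacterial viability or growth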
[11] = test system: Streptococcus sp. 'group A'; assay: growth inhibition of control SK(-) GAS strain, dose response, counter-screen for streptokinase expression inhibitor project, luminescence, kanamycin, BacTiterGlo, confirmation (AID 1900); format: functional, organism-based
[12] = growth suppression of beta-catenin-knockout colon cells, dose response, cell-based, HCT116, human colon tumor (AID 1045); format: functional;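 note: HCT116 colon tumor cells with beta catenin knocked out; cells exposed to compound for 60 hours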

T2 sequence (P11940 whole entry): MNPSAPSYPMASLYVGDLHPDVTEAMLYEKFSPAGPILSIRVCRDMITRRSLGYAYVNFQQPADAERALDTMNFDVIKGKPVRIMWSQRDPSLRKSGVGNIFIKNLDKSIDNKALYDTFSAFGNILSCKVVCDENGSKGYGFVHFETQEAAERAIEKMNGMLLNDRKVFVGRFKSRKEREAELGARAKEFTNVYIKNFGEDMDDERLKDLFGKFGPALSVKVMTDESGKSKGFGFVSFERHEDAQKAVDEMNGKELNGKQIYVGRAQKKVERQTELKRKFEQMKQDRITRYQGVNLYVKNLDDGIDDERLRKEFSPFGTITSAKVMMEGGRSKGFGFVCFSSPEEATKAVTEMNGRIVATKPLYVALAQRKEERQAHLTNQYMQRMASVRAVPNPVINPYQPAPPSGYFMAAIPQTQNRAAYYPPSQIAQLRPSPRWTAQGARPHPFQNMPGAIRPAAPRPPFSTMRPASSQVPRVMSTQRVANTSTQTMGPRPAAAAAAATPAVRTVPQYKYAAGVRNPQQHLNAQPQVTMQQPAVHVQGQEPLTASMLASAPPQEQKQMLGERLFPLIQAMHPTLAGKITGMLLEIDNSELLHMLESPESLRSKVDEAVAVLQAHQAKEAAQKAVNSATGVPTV
Chain of Cytochrome P450 2C19 (P33261 whole entry): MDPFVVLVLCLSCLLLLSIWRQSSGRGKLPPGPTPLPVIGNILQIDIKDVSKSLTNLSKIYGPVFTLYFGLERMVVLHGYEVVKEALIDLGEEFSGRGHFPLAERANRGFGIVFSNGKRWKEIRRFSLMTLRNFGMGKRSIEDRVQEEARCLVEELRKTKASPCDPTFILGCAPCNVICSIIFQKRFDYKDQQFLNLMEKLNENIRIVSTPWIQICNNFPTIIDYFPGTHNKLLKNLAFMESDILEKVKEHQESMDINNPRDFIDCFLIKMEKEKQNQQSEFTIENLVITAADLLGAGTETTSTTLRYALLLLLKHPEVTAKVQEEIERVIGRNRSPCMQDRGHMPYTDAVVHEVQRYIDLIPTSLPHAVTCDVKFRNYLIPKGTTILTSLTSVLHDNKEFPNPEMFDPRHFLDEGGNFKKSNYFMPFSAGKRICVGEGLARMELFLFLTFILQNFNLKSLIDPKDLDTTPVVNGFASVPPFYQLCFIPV

Cc1ccc(NC(=O)Cn2nc(C)c3ccccc3c2=O)cc1F
IC50 (Leucine aminopeptidase): 14 µM (active)

COc1cc(C(=O)NC2=NCCS2)ccc1OCc1c(C)noc1C
IC50 [1]: > 66 µM (inactive)
IC50 [2]: > 66 µM (inactive)

O=C(CSC1=NCCS1)Nc1nc2ccccc2s1
EC50 [3]: 12.5 µM (active)
IC50 [1]: > 66 µM (inactive)
IC50 [2]: > 66 µM (inactive)
EC50 (H4): 9.16 µM (active)
EC50 [4]: 15 µM (active)

COc1ccc(CNC(=O)CN(Cc2ccc(C)cc2)C(=O)c2csnn2)cc1
IC50 [1]: > 66 µM (inactive)
IC50 [2]: > 66 µM (inactive)

NC(=NOC(=O)CSc1ccccc1)c1ccc([N+](=O)[O-])cc1
EC50 [3]: 9.44 µM (active)
IC50 [1]: > 66 µM (inactive)
IC50 [2]: > 66 µM (inactive)
EC50 (H4): > 120 µM (not active)
EC50 [4]: 11.5 µM (active)

O=C(CSC1=Nc2ccccc2C2=NC(CC(=O)NCc3ccco3)C(=O)N12)NCc1ccco1 (stereo not drawn)
IC50 [1]: > 66 µM (inactive)
IC50 [2]: > 66 µM (inactive)

Cc1ccc(Nc2cnn(C34CC5CC(CC(CC(=O)O)(C5)C3)C4)c(=O)c2Cl)c(Cl)c1
IC50 (Leucine aminopeptidase): 24.4 µM (active)

O=C(O)C1CSC(c2ccncc2)N1 (stereo not drawn)
IC50 [1]: > 66 µM (inactive)
IC50 [2]: > 66 µM (inactive)

O=C(CCl)N(CCc1ccccc1)CCc1ccccc1
EC50 [5]: 2.07 µM (active)
EC50 (Protein RecA): 2.36 µM (active)
CC50 (Vero): 8.89 µM (active)
AC50 [6]: 10 µM (active)
EC50 [7]: > 30 µM (not active)

Cc1cccn2c(=O)c3cc(C(=O)NCc4ccco4)c(=N)n(CCOCCO)c3nc12
IC50 [1]: > 66 µM (inactive)
IC50 [2]: 15.2 µM (active)

CC(C)Sc1nc(-c2ccccc2)cc(=O)[nH]1
IC50 (Leucine aminopeptidase): 28.3 µM (active)

Cc1ccc(C)c(NC(=O)CSc2ncnc3nc[nH]c23)c1
IC50 (Leucine aminopeptidase): 50.8 µM (active)

COc1ccc(C2C(C#N)=C(N)OC3=C2C(=O)CC(C)(C)C3)c([N+](=O)[O-])c1OC (stereo not drawn)
EC50 [8]: > 300 µM (not active)
EC50 [9]: > 300 µM (not active)
AC50 (Cytochrome P450 2C19): 14.1 µM (inconclusive)
IC50 [1]: > 66 µM (inactive)
IC50 [2]: > 66 µM (inactive)

O=C(NCc1ccco1)C(=O)c1cn(CC(=O)N2CCCC2)c2ccccc12
IC50 (Leucine aminopeptidase): 73.3 µM (active)

COc1cc(NS(=O)(=O)c2ccc(NC(=O)CSC3=NCCS3)cc2)nc(OC)n1
IC50 (Leucine aminopeptidase): 2.12 µM (active)

CC1(C)Cc2c(c(-c3ccco3)[nH]c(=O)c2C#N)CS1
IC50 [1]: > 66 µM (inactive)
IC50 [2]: 26 µM (inactive)

Cc1ccccc1SCC(=O)NC1CCOC1=O (stereo not drawn)
IC50 [1]: > 66 µM (inactive)
IC50 [2]: > 66 µM (inactive)

Cc1cccc(-c2nnc(NC(=O)c3ccc(Cl)cc3)o2)c1
EC50 [10]: 23.1 µM (active)
EC50 (Streptococcus): 0.81 µM (active)
CC50 (Vero): > 25 µM (active)
EC50 [11]: 0.099 µM (active)
EC50 [12]: 17.4 µM (active)

Cc1ccc2ncccc2c1NC(=S)NC(=O)c1ccccc1
IC50 [1]: > 66 µM (inactive)
IC50 [2]: > 66 µM (inactive)

C=COC(=O)NC1CCc2cc(OC)c(OC)c(OC)c2-c2ccc(SC)c(=O)cc21 (stereo not drawn)
CC50 (Vero): < 0.05 µM (active)

Cn1c(CCC(=O)O)nc2cc(S(=O)(=O)N3CCCCC3)ccc21
IC50 [1]: > 66 µM (inactive)
IC50 [2]: > 66 µM (inactive)

O=C(O)c1cccc(Cn2c(Cl)c(/C=N/NC(=O)c3ccccc3)sc2=O)c1
IC50 (Leucine aminopeptidase): 20.8 µM (active)

CC(=O)O[C@H]1C[C@]2(O)[C@@H]3CC[C@@H]4C[C@@H](O)CC[C@]4(C)[C@H]3CC[C@]2(C)[C@H]1C1=CC(=O)OC1
CC50 (Vero): 0.46 µM (active)

COc1ccc(C(=O)/C=C/c2ccccc2)c(OC)c1
CC50 (Vero): 12.4 µM (active)
